The values that follow come from US20090163571A1, “PHARMACEUTICAL FOR USE IN THE TREATMENT OF URETEROLITHIASIS” (KISSEI PHARMACEUTICAL CO., LTD, priority 2005, published 2009).

Structures are written as SMILES. Where a name gives a salt, the structure may show the parent alone.

For one data set, the system named is isolated hamster ureter. In words: Inhibition of phenylephrine-induced contraction of isolated hamster ureter (organ bath). The following applies: for pA2: against phenylephrine concentration-response curve.
For data set [1] the following is noted: anesthetized dogs; compared with the compound of general formula (I); cited from earlier work.

The term pA2 denotes a measure of antagonist potency on a negative log scale. High values mean higher antagonist potency, low ones lower antagonist potency. Compound `COc1ccccc1N1CCN(CCN2C(=O)CC3(CCCC3)CC2=O)CC1` [BMY-7378] registered a pA2 in the data set with isolated hamster ureter of 5.75. The compound `CCOc1ccccc1OCCN[C@H](C)Cc1ccc(OC)c(S(N)(=O)=O)c1` [tamsulosin hydrochloride] yielded a pA2 in the data set with isolated hamster ureter of 9.85. Besides, the “decrease of blood pressure” value in data set [1] is on record as “decreases blood pressure more strongly than the compound represented by the above general formula (I)”. As for `C[C@H](Cc1cc2c(c(C(N)=O)c1)N(CCCO)CC2)NCCOc1ccccc1OCC(F)(F)F` [Compound 1, (−)-1-(3-hydroxypropyl)-5-((2R)-2-{[2-((2-[(2,2,2-trifluoroethyl)oxy]phenyl)oxy)ethyl]amino}propyl)-2,3-dihydro-1H-indole-7-carboxamide], in the data set with isolated hamster ureter (3×10^−10, 1×10^−9, 3×10^−9 mol/L, about 30 min pretreatment), the “inhibitory effect against phenylephrine induced ureteral contraction (shift of concentration-response curve)” value was “caused concentration-dependently a parallel rightward shift of the concentration-response curve for phenylephrine”. The compound further had a pA2 in the data set on isolated hamster ureter of 9.44. `COc1ccccc1N1CCN(CC(O)COc2cccc3ccccc23)CC1` (stereo not drawn) [naftopidil] displayed a pA2 in the data set with isolated hamster ureter of 6.54.
